Structures are written as SMILES.

The subject of experiment [1] is Male Lewis rats (CIA model, heterotopic bone formation). As to the kind of experiment: Collagen Induce Arthritis (CIA) in rats, histological scores. The experiment is classed as in vivo, rat. An excerpt: Collagen Induce Arthritis (CIA) in rats is among the most common models used to mimic human arthritis and especially Rheumatoid Arthritis (RA). In general the joint response seen in this model is quite similar to that observed in human pathology, in terms of inflammation, bone erosion and cartilage damage. Nevertheless, this model differs from Rheumatoid Arthritis, since it is endowed with a consistent periosteal woven bone formation (immature bone) that is not a usual feature of human RA (maybe, less than 10% of patients have this type of bone reaction). On the contrary, this disordered apposition of new bone is the distinctive feature of heterotopic ossification. Therefore, this model was used to study the effect of the compound of the invention in Pathological heretopic osteogenesis.
Male Lewis rats were immunized by intradermal injection at the base of the tail with an emulsion containing 150 μg of bovine collagen type II (bCII) in complete Freund's adjuvant (CFA) or received an injection with incomplete Freund's adjuvant (sham group). Three weeks after the first immunisation, animals were boosted with the same procedure. Three days after booster injection, arthritis had developed in all animals but the sham group. The administration of the compound (1) Form A started at this time point and lasted for 14 days (once a day, unless otherwise indicated).
The paws were fixed in 10% neutral buffered formalin (Bio-Optica, Milan, Italy) and subsequently decalcified in EDTA for 4 weeks. Samples were dehydrated in an ethanol series and embedded in paraffin. At least three non-consecutive sections for each paw were blindly scored at the level of the tarsus, metatarsus and calcaneus for the following histological features of woven bone. Two independent pathologists performed histopathology on blinded slides. The data of right and left hind limbs were summed for each rat.
In FIG. 3 the dose-response curve for the compound of the invention is reported. the compound was administered once a day for 14 days on the site where the pathological bone formation was expected as induced in the CIA model in rats. The dose were 1 mg/Kg, 3 mg/kg and 10 mg/kg. The data were expressed as the median (boxed area), 95% interquartile range (whiskers), and individual data (symbols) of the histological scores for heterotopic bone formation (osteogenesis) given by two pathologists unaware of the treatment groups on a following scale: 0=absent; 1=mild/focal; 2=moderate/multifocal; 3=severe/multifocal to diffuse. Since arthritis was bilateral, the scores for each rat was the sum of the two leg scores. […] The compound reached the maximal activity at 10 mg/kg.
The data were expressed as the median histological scores for heterotopic bone formation (osteogenesis) as described for FIG. 3. […] As for osteogenesis, the data reported in this graph were the median (boxed area), 95% interquartile range (whiskers), and individual data (symbols) of the histological scores for synovial hyperplasia (oedema) given by two pathologists unaware of the treatment groups on a following scale: 0=normal: 1-2 layers of synovial lining cells, 1=mild: focal to multifocal 3-4 layers of synovial lining cells and/or mild proliferation of subsynovial tissue, 2=moderate: focal to mutlitfocal >4-6 layers of synovial lining cells and/or moderate proliferation of subsynovial tissue, 3=severe: multifocal to diffuse >6-8 layers of synovial lining cells and/or severe proliferation of subsynovial tissue. Since arthritis was bilateral, the scores for each rat is the sum of the two leg scores. This underline a preferential and surprising effect of (R)-4-(1-(6-(4-(trifluoromethyl)benzyl)-6-azaspiro[2.5]octane-5-carboxamido)cyclopropyl)benzoic acid on the heterotopic bone formation, […].
The free acid form has been assayed in the rat CIA model as already described for its sodium salt (Form A). […]

The subject of experiment [2] is Male DBA/1 mice (CIA model). As to the kind of experiment: CIA in mice, histology of heterotopic bone formation. The experiment is classed as in vivo. The settings on record: 60 mg/kg once daily for 10 days, FIG. 9. Here is the method:
CIA in mice is another very popular translational model to mimic human arthritis. […] Male DBA/1 mice were immunized by intradermal injection at the base of the tail with an emulsion of 200 μg of bCII in CFA containing 3 mg/ml Mycobacterium tuberculosis. Non-immunized mice served as the negative control of disease. Animals were monitored by visual inspection for appearance of peripheral edema. […] Upon onset, animals were recruited and randomized. Recruitment was given a cut-off at day 40. Upon recruitment, arthritis clinical score was assigned, and edema was measured via caliper. Mice were randomized into the following groups: vehicle, 30 mg/kg the form A of the sodium salt of (R)-4-(1-(6-(4-(trifluoromethyl)benzyl)-6-azaspiro[2.5]octane-5-carboxamido)cyclopropyl)benzoic acid, 60 mg/kg the form A of the sodium salt of (R)-4-(1-(6-(4-(trifluoromethyl)benzyl)-6-azaspiro[2.5]octane-5-carboxamido)cyclopropyl)benzoic acid and 60 mg/kg naproxen. Animals received the test drugs once daily for 10 days. Histology was performed as described for rats.

For `O=C(O)c1ccc(C2(NC(=O)[C@H]3CC4(CCN3Cc3ccc(C(F)(F)F)cc3)CC4)CC2)cc1` [free acid, (R)-4-(1-(6-(4-(trifluoromethyl)benzyl)-6-azaspiro[2.5]octane-5-carboxamido)cyclopropyl)benzoic acid], the “potency in controlling osteogenesis compared with tofacitinib” value in experiment [1] (free acid orally 15 mg/kg once a day vs tofacitinib 5 or 25 mg/kg b.i.d.) is recorded as “superior”.
With `COc1ccc2cc([C@H](C)C(=O)O)ccc2c1` [naproxen, reference compound], the “new heterotopic bone formation (histology)” value in experiment [2] is “not able to significantly affect new heterotopic bone formation”.
Regarding `CS(=O)(=O)c1ccc(C2=C(c3ccccc3)C(=O)OC2)cc1` [rofecoxib, reference compound], the “control of the inflammatory response (edema; histological scores for synovial hyperplasia)” value in experiment [1] (15 mg/kg each, FIG. 6b) is given as “equally effective”.
On to `C[C@@H]1CCN(C(=O)CC#N)C[C@@H]1N(C)c1ncnc2[nH]ccc12` [tofacitinib, reference compound], for which the “effect in controlling osteogenesis relative to the free acid at 15 mg/kg QD” value in experiment [1] (tofacitinib 25 mg/kg b.i.d. (daily dose more than three times higher)) is “reached the same effect in controlling osteogenesis”.

(Values after patent US12433875B2, “(R)-4-(1-(6-(4-(trifluoromethyl)benzyl)-6-azaspiro[2.5]octane-5-carboxamido)-cyclopropyl) benzoic acid or its salt also in polymorphic form a for use in the prevention of heterotopic ossification” (ROTTAPHARM BIOTECH S.R.L., priority 2019, dated 2025).)
